Entries after “also recorded” stand apart in the source; their conditions may differ. Read-outs that look alike come from different tables or passages of the source.
Columns and labels:
[1] = system: [3H]DA-preloaded rat striatal slices (nicotinic receptors); test: [3H]overflow (DA release) from [3H]DA-preloaded rat striatal slices; type: cell-based
Procedure: In vitro pharmacological effects of NIC are generally investigated using either striatal slices or synaptosome preparations preloaded with [^3 H] DA. NIC-evoked [^3 H]overflow is obtained routinely in the presence of nomifensine (10 μM; a DA uptake inhibitor) and for pargyline (10 μM, a monoamine oxidase inhibitor) in the superfusion buffer, such that [^3 H]overflow represents primarily [^3 H]DA rather than [H]DA-metabolites (Zumstein et al., 1981, Hoffmann and Cubeddu, 1982, Dwoskin and Zahniser, 1986, Rapier et al., 1988), and for this reason, [^3 H]overflow also will be referred to as [^3 H] DA release in the proposal.
The present studies use striatal slices superfused with various concentrations of NIC or norNIC for prolonged periods.
FIG. 4. […] Insets illustrate the response to the low concentration range. […] NIC exposure indicated by the bar under time course. Note: 1-min sample collection period. […] N=4 rats.
Rat striatal slices were depolarized with 10 μM NIC, 20 mM K+or 1 Hz, 60 pulses or 3 Hz, 180 pulses electrical field stimulation. […] N=4.
MEC or DHβE was included in the superfusion buffer for 60 min prior to the addition of NIC, and superfusion continued for 60 min in the presence of NIC+antagonist.

[2] = system: mouse striatal synaptosomes; conditions: Grady et al., cited from earlier work
[3] = Amphetamine drug discrimination (substitution tests); type: in vivo, rat; conditions: for amphetamine-correct responding reached by individual rats: any dose, none of the rats reached; for amphetamine-appropriate responding (partial substitution): nicotine 0.1-1.0 mg/kg, nornicotine 1-10 mg/kg; for relative potency, nicotine vs nornicotine: partial substitution for amphetamine
Procedure: Rats were trained in on two-lever food-reinforced operant tasks to discriminate amphetamine (1 mg/kg) from saline. After discrimination training stabilized, test doses of amphetamine (0.0625-2.0 mg/kg), nicotine (0.1-1.0 mg/kg) or nornicotine (1-10 mg/kg) were assessed for their ability to substitute for the amphetamine training dose during brief test sessions in which food reinforcement was withheld.
Nine male Sprague-Hawley rats were obtained from Harlan Industries (Indianapolis, Ind.) and were caged individually with water continuously available. Food access was restricted in order to maintain body weights at approximately 80% of free-feeding weight. Prior to the start of the experiment, all rats received a single injection of amphetamine (1 mg.kg, IP) as part of an unrelated experiment. Apparatus Six operant chambers (ENV-001, Med Associates, St. Albans, Vt.) enclosed in a sound attenuating environment were used. Located in the bottom center of the front panel in each chamber was a 5×4.-cm opening to a recessed food tray. Two metal response levers were located on the front panel, one on each side of the food tray. The center of each lever was mounted 7.3 cm from the grid floor. A 28-Vcue light, 3 cm in diameter, was centered 6 cm above each lever. A personal computer, interfaced to the chamber with Med Associates equipment, controlled the experimental sessions and collected data.
The general procedures utilized to establish amphetamine discrimination were similar to those outlined previously (13). Briefly, rats were first given access to food pellets (45 mg sucrose pellet, Noyes Co., Lancaster, N.H.) dispensed noncontingently into the food tray with both levers present. One lever was then removed and the rat was shaped to depress the other lever for food reinforcement. Following this, rats received 15-min daily sessions in which the lever (left or right) available for food reinforcement was alternated daily. […] The start of each session was signaled by the onset of both cue lights mounted above the levers, and the termination of each session was signaled by the offset of these lights. This training phase was continued until the rat earned 20 reinforces on an FR25 schedule for two days.
Amphetamine discrimination training was conducted Monday through Friday. For this training, both levers were mounted in the chamber. Amphetamine (A; 1 mg/kg) or saline (S), was injected IP 15 min prior to the start of the session, with the order of injections being either AASS or SSAA. The left lever was designated as the amphetamine-correct lever for 4 rats, while the right lever was amphetamine -correct for 5 rats. On Monday, Wednesday and Friday, injection-appropriate responding was food-reinforcedon an FR25 schedule for the entire 15-min session. However, 2-min extinction periods were instituted at the beginning of sessions on Tuesday and Thursday (one amphetamine and one saline test per week) to assess the control of amphetamine (or saline) over responding. […] During the remaining 13 min of these sessions, contingent reinforcement for injection-appropriate responding was reinstated. This phase of training was continued until the rat completed the first FR25 on the correct lever for 10 consecutive sessions and also completed 80% or more responses on the injection-appropriate lever during 4 consecutive extinction periods.
The substitution phase was identical to the previously described amphetamine discrimination phase, except for the Friday session, which was decreased to a 4-min extinction session with no food available.

[4] = system: rat and mouse striatal synaptosomes; conditions: Rapier, El-Bizri, Rowell; cited from earlier work
[5] = cited from earlier work
rat striatal slices = conditions: 0.1-100 μM, 15 min exposure, Dwoskin et al., 1993, cited from earlier work
[6] = system: nicotinic receptor sites in the brain; test: displacement of nicotine from nicotinic receptor sites in the brain; type: binding
[7] = rats; cited from earlier work
[8] = hemodynamic function in conscious animals; type: in vivo; conditions: behaviorally active doses

Which results are given for `CN1CCC[C@H]1c1cccnc1` [S(-) nicotine]?
absolute [3H]overflow vs 20 mM K+ or 1 Hz, 60 pulses stimulation [1]: not significantly different; evoked [3H]overflow [1]: increase in [^3 H]overflow; also recorded: stereoselective and concentration dependent increase; plateau in [3H]overflow [1]: 30 mM; plateau in response [1]: fail to produce a plateau in response; time of peak effect [1]: 10 to 15 min; time of return of release to basal levels [1]: 30 to 60 min; EC50 ([2]; 1992, read-out: EC50 for NIC-stimulated, MEC-sensitive [3H]overflow): 0.48 µM; EC50 ([2]; 1994, 0.1-30 μM, 10 min exposure, read-out: EC50, peak DA release): 0.33 µM; total number of lever presses ([3]; 15 min): significant decreases in total number of lever presses; plateau of dose-effect curve, amphetamine-appropriate responding ([3]; 45 min): 50; total number of lever presses ([3]; 45 min): significant decrease in total number of lever presses; amphetamine-correct responding reached by individual rats [3]: < 80%; amphetamine-appropriate responding ([3]; nicotine 1 mg/kg, 15 min): Approximately 50%; amphetamine-appropriate responding (maximum) ([3]; nicotine 1 mg/kg, 45 min): approximately 50%; amphetamine-correct responses, individual rats ([3]; nicotine 1 mg/kg, 45 min): 31-59%; amphetamine-appropriate responding (partial substitution) [3]: approximately 50%; relative potency, nicotine vs nornicotine [3]: more potent than nornicotine; plateau concentration of concentration-response curve [4]: 1 to 100 µM

For `c1cncc([C@@H]2CCCN2)c1` [S(-) nornicotine, S-(-) nornicotine], which EC50 ([1]; Rattus norvegicus, read-out: EC50 for norNIC stimulated, DHβE-sensitive [3H]overflow) is on record?
Its EC50 is 0.88 ± 0.31 µM.

And the “evoked [3H]overflow” value ([1]; concentration-dependent)?
The value was “increase in [^3 H]overflow; also recorded: stereoselective and concentration dependent increase”.

What about the plateau in response ([1]; concentration-response curve, 60-min exposure) of the same compound?
Its plateau in response is “not observed at concentrations up to 3 mM; also recorded: fail to produce a plateau in response”.

What about the “release of dopamine from presynaptic terminals” value ([1]; neuronal tissue) of the same compound?
Its value is “stereoselective and receptor-mediated”.

And the “detection in urine of human smokers” value [5]?
The value was “detectable in the urine of human smokers”.

And the “endogenous DA release” value (rat striatal slices)?
The value was “concentration-dependent and Ca+-dependent increase”.

What about the “endogenous DA release” value (rat striatal slices; listed as S(-) enantiomer of norNIC) of the same compound?
The value was “concentration-dependent and Ca^++ -dependent increase”.

What about the “displacement of nicotine from nicotinic receptor sites” value [6] of the same compound?
Its value is “cause displacement of nicotine”.

And the “substitution for nicotine in drug discrimination” value [7]?
Its value is “substitutes fully for nicotine”.

What about the “total number of lever presses” value ([3]; 15 min) of the same compound?
The value was “significant decreases in total number of lever presses”.

What about the “plateau of dose-effect curve, amphetamine-appropriate responding” value ([3]; 45 min) of the same compound?
Its value is 50.

What about the “total number of lever presses” value ([3]; 45 min) of the same compound?
Its value is “significant decrease in total number of lever presses”.

And the “amphetamine-correct responding reached by individual rats” value [3]?
The value was < 80%.

And the “amphetamine-appropriate responding (partial substitution)” value [3]?
Its value is “approximately 50%”.

What about the amphetamine-appropriate responding ([3]; nornicotine 3 mg/kg, 15 min) of the same compound?
The amphetamine-appropriate responding was “Approximately 50%”.

What about the “amphetamine-appropriate responding (maximum)” value ([3]; nornicotine 10 mg/kg, 45 min) of the same compound?
The value was “approximately 50%”.

And the “amphetamine-correct responses, individual rats” value ([3]; nornicotine 10 mg/kg, 45 min)?
Its value is 33-61%.

And the “relative potency, nicotine vs nornicotine” value [3]?
Its value is “less potent than nicotine”.

What about the “behavioral profile in drug discrimination” value ([3]; rat, in vivo) of the same compound?
Its value is “behavioral profile similar to nicotine”.

What about the “effect on hemodynamic function” value [8] of the same compound?
The value was “no adverse effective on hemodynamic function”.

Source: patent US5776957A, “Nornicotine enantiomers for use as a treatment for dopamine related conditions and disease states” (The University of Kentucky Research Foundation, priority 1996, dated 1998)
